Experimental data published in US6337417B1, “N-phenyltetrahydrophthalamic acid derivatives, methods of producing same, and herbicides containing same as effective components” (Central Glass Co., Ltd., priority 1994, dated 2002).

Columns and labels:
Type in all cases: in vivo
Design in all cases: key: 5: completely killed; 4: seriously injured; 3: considerably injured; 2: somewhat injured; 1: slightly injured; 0: not injured (normally grown)
[1] = tested on: mehishiba (henry crabgrass, Digitaria cliaris); assay: Experiment 2 foliage treatment: mehishiba; details: 4 weeks after treatment
Procedure: (§1) Upon seedling stage (two- or three-leaved stage) of rice, cockspur (Panicum crus-galli), garden radish, aobiyu (slender amaranth, Amaranthus viridis) and mehishiba (henry crabgrass, Digitaria cliaris) which were grown on a cultivated soil put in pots of 1/15500 ares, a selected compound obtained in a manner analogous to Example 8, in suspended wettable powder, was sprayed to each plant. After that, the pots were kept in a glass chamber to allow each plant to grow, and after the lapse of 4 weeks from the treatment with the selected compounds the herbicidal effects were evaluated. The evaluation of the herbicidal effects was similarly conducted as to that of Experiment 1.

[2] = tested on: aobiyu (slender amaranth, Amaranthus viridis); assay: Experiment 2 foliage treatment: aobiyu; details: 4 weeks after treatment
Procedure: as §1

[3] = tested on: garden radish; assay: Experiment 2 foliage treatment: garden radish; details: 4 weeks after treatment
Procedure: as §1

[4] = tested on: rice; assay: Experiment 2 foliage treatment: rice; details: 4 weeks after treatment
Procedure: as §1

[5] = tested on: cockspur (Panicum crus-galli); assay: Experiment 2 foliage treatment: cockspur; details: 4 weeks after treatment
Procedure: as §1

[6] = tested on: aobiyu (slender amaranth, Amaranthus viridis); assay: Experiment 5 foliage treatment: aobiyu; details: foliage spray of wettable powder suspension, evaluated 4 weeks after treatment
Procedure: as §1, with “11,” for “8,”, “as” for “as to”

[7] = tested on: garden radish; assay: Experiment 5 foliage treatment: garden radish; details: foliage spray of wettable powder suspension, evaluated 4 weeks after treatment
Procedure: as §1, with “11,” for “8,”, “as” for “as to”

[8] = tested on: tamagayatsuri (small-flowered umbrellaplant, Cyperus difformis); assay: Experiment 4 flooded soil treatment: tamagayatsuri; details: 4 weeks after treatment
Source text: (§2) Paddy soil (clay loam) was put into a pot so as to have a surface area of 1/15500 ares. Uniformly mixed seeds of several kinds of weeds, viz., nobie (barnyardgrass, Echinochloa spp.), broad-leaved weeds, hotarui (bulrush, Scirpus juncoides) and tamagayatsuri (small-flowered umbrellaplant, Cyperus difformis), were sown in the surface layer of the soil in each pot, and then paddy rice seedlings at the two- or three-leaved stage were transplanted into each pot to a depth of 2 cm, and water was fed into each pot so as to provide a 3 cm deep water layer on the soil surface. After 3 days, in other words at the initial stage of germination of nobie (barnyardgrass, Echinochloa spp.), a predetermined amount of a selected compound obtained in a manner analogous to Example 11 in the form of diluted aqueous solution was dropped into the water layer in each pot. After that, the pots were kept in a glass chamber to allow the paddy rice and the weeds to grow, and after the lapse of 4 weeks from the treatment with the selected compounds, the herbicidal effects and the degree of injury to the paddy rice were evaluated. The evaluation of the herbicidal effects was similarly conducted as to that of Experiment 1.

[9] = tested on: mehishiba (henry crabgrass, Digitaria cliaris); assay: Experiment 5 foliage treatment: mehishiba; details: foliage spray of wettable powder suspension, evaluated 4 weeks after treatment
Procedure: as §1, with “11,” for “8,”, “as” for “as to”

[10] = tested on: broad-leaved weeds; assay: Experiment 4 flooded soil treatment: broad-leaved weeds; details: 4 weeks after treatment
Source text: as §2

[11] = tested on: rice; assay: Experiment 5 foliage treatment: rice; details: foliage spray of wettable powder suspension, evaluated 4 weeks after treatment
Procedure: as §1, with “11,” for “8,”, “as” for “as to”

[12] = tested on: cockspur (Panicum crus-galli); assay: Experiment 5 foliage treatment: cockspur; details: foliage spray of wettable powder suspension, evaluated 4 weeks after treatment
Procedure: as §1, with “11,” for “8,”, “as” for “as to”

[13] = tested on: nobie (barnyardgrass, Echinochloa spp.); assay: Experiment 4 flooded soil treatment: nobie; details: 4 weeks after treatment
Source text: as §2

[14] = tested on: paddy rice; assay: Experiment 4 flooded soil treatment: injury to paddy rice; details: 4 weeks after treatment
Source text: as §2

[15] = tested on: hotarui (bulrush, Scirpus juncoides); assay: Experiment 4 flooded soil treatment: hotarui; details: 4 weeks after treatment
Source text: as §2

Row | Structure (SMILES) | Herbicidal Effect aobiyu ([6]; 40 g/10a) | Herbicidal Effect aobiyu ([6]; 80 g/10a) | Herbicidal Effect garden radish ([7]; 40 g/10a) | Herbicidal Effect garden radish ([7]; 80 g/10a) | Herbicidal Effect tamagayatsuri ([8]; 3.13 g/10a) | Herbicidal Effect tamagayatsuri ([8]; 6.25 g/10a) | Herbicidal Effect mehishiba ([9]; 40 g/10a) | Herbicidal Effect mehishiba ([9]; 80 g/10a) | Herbicidal Effect broad-leaved weed ([10]; 3.13 g/10a) | Herbicidal Effect broad-leaved weed ([10]; 6.25 g/10a) | Herbicidal Effect rice ([11]; 40 g/10a) | Herbicidal Effect rice ([11]; 80 g/10a) | Herbicidal Effect cockspur ([12]; 40 g/10a) | Herbicidal Effect cockspur ([12]; 80 g/10a) | Herbicidal Effect nobie ([13]; 3.13 g/10a) | Herbicidal Effect nobie ([13]; 6.25 g/10a) | Injury of Paddy ([14]; 3.13 g/10a) | Injury of Paddy ([14]; 6.25 g/10a) | Herbicidal Effect hotarui ([15]; 3.13 g/10a) | Herbicidal Effect hotarui ([15]; 6.25 g/10a) | also measured
1 | CCCCOC(=O)C1=C(C(=O)N(C(C)=O)c2cc(SCC(=O)OCC)c(Cl)cc2F)CCCC1 [compound 39] |  |  |  |  |  |  |  |  |  |  |  |  |  |  |  |  |  |  |  |  | Herbicidal Effect mehishiba ([1]; 40 g/10a): 1; Herbicidal Effect mehishiba ([1]; 80 g/10a): 1; Herbicidal Effect aobiyu ([2]; 40 g/10a): 5; Herbicidal Effect aobiyu ([2]; 80 g/10a): 5; Herbicidal Effect garden radish ([3]; 40 g/10a): 5; Herbicidal Effect garden radish ([3]; 80 g/10a): 5; Herbicidal Effect rice ([4]; 40 g/10a): 1; Herbicidal Effect rice ([4]; 80 g/10a): 1; Herbicidal Effect cockspur ([5]; 40 g/10a): 1; Herbicidal Effect cockspur ([5]; 80 g/10a): 1
2 | CCCCOC(=O)CSc1cc(N(C(C)=O)C(=O)C2=C(C(=O)OCCCC)CCCC2)c(F)cc1Cl [compound 40] |  |  |  |  |  |  |  |  |  |  |  |  |  |  |  |  |  |  |  |  | Herbicidal Effect mehishiba ([1]; 40 g/10a): 1; Herbicidal Effect mehishiba ([1]; 80 g/10a): 1; Herbicidal Effect aobiyu ([2]; 40 g/10a): 5; Herbicidal Effect aobiyu ([2]; 80 g/10a): 5; Herbicidal Effect garden radish ([3]; 40 g/10a): 5; Herbicidal Effect garden radish ([3]; 80 g/10a): 5; Herbicidal Effect rice ([4]; 40 g/10a): 1; Herbicidal Effect rice ([4]; 80 g/10a): 1; Herbicidal Effect cockspur ([5]; 40 g/10a): 1; Herbicidal Effect cockspur ([5]; 80 g/10a): 1
3 | C#CC(C)Oc1cc(N(C(=O)C2=C(C(=O)OCCOC)CCCC2)C(=O)c2ccc(Cl)nc2)c(F)cc1Cl (centres unmarked) [compound 69] | 5 | 5 | 4.5 | 5 | 5 | 5 | 2 | 2 | 5 | 5 | 1 | 1 | 1 | 1 | 5 | 5 | 0.5 | 0.5 | 4 | 4.5 | 
4 | C#CC(C)Oc1cc(N(C(=O)C2=C(C(=O)OC)CCCC2)C(=O)c2cccnc2)c(Cl)cc1Cl (centres unmarked) [compound 70] | 5 | 5 | 4 | 5 | 5 | 5 | 2 | 2 | 5 | 5 | 1 | 1 | 1 | 1 | 5 | 5 | 0 | 0 | 4 | 4 | 
5 | C#CC(C)Oc1cc(N(C(=O)C2=C(C(=O)OCCOC)CCCC2)C(=O)c2cccnc2)c(Cl)cc1Cl (centres unmarked) [compound 71] | 5 | 5 | 4 | 5 | 5 | 5 | 2 | 2 | 5 | 5 | 1 | 1 | 1 | 1 | 5 | 5 | 0 | 0 | 4 | 4 | 
